Measurements from article PMC6554663, “Pharmaceutical Effects of Inhibiting the Soluble Epoxide Hydrolase in Canine Osteoarthritis” (Frontiers in Pharmacology, 2019).
In brackets after ≈: the same amount, converted by molar mass. Several values for one entry are separate records, joined by “and”; a condition that tells them apart may be missing. Equal values may be shown once. Read-outs that look alike come from different tables or passages of the source.

Key:
Microsomal stability = assay type: in vitro ADME, dog; settings: for % Parent + NADPH / % Parent − NADPH: 60 min, 37°C
Experimental: Male and female dog liver microsomes (Xenotech) were diluted in potassium phosphate buffer (0.1M, pH 7.4), MgCl2 (3.15 mM), and sodium EDTA (1.05 mM) to a final protein concentration of 1 mg/mL. Compounds were added at 0.1 mM in methanol at 1% and microsomes were activated with 5% (v/v) NADPH regenerating system (100 μL sodium phosphate buffer (0.1M, pH 7.4), 50 μL, glucose-6-phosphate in sodium phosphate buffer (0.1M, pH 7.4), 50 μL NADP+ in sodium phosphate (0.1M, pH 7.4), and 50 μL of 100 Units/mL of […]). […] Compounds were incubated without microsomes or NADPH as negative controls.

[1] = Blood and synovial fluid concentrations in treated osteoarthritic dogs; assay type: in vivo, dog; settings: for concentration at 2 h: beagle, dog, oral, EC1728 5 mg/kg; for Blood concentration D5 / Synovial fluid concentration D1 / Synovial fluid concentration D5: po, qd x 5, detected EC1728, individual dogs;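 as to Synovial fluid concentration D1: synovial fluid also sampled on Day 1 after the pain assessment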
Experimental: (§1) Eight satellite dogs (2 per each group) had whole blood collected for PK analysis on study Days […]. On Day 1, blood was collected immediately prior to dosing, and again at 0.25, 0.5, 1, 2, 4, 6, and 8 (±5 min) after dosing. On Day 2 through 4, blood was collected 0.5 h (±5 min) after dosing. On Day 5 blood was collected immediately prior to dosing, and again at 0.25, 0.5, 1, 2, 4, 6, 8 (±5 min), 24, 48, and 72 h (±30 min) post treatment. […] For all blood samples, a minimum of 3 mL of whole blood was collected from a suitable vein as per written and approved standard operating procedures. The blood was transferred to K2EDTA (spray dried) blood tube and inverted gently multiple times to ensure proper mixing of the blood and anticoagulant. On study Day 5, synovial fluid was collected by arthrocentesis immediately after the subject completed the questionnaire (approximately […] after dosing). Subjects were anesthetized as per written and approved Standard Operating Procedures. A minimum of 0.1 mL of synovial fluid was collected from each subject. Samples were frozen in an upright position and stored at -80°C ± 4°C before being shipped to UC Davis for analysis.
Pain and function were assessed by a questionnaire answered by blinded technicians based on observation of study animals housed at InterVivo. The survey was adapted from the canine brief pain inventory (CBPI), which was developed based on clinical questionnaires in which owners score the function and pain level of their pets with existing pain conditions ([Brown et al., 2007]). Modifications to the questionnaire attempted to account for differences between owner pain evaluation of pets and pain evaluation of laboratory dogs by technical staff. For survey administration, blinded technicians attempted to elicit objective behavior-specific measures of function and pain level across a variety of normal canine behaviors (e.g., walking, trotting, galloping, rearing, and stair-climbing, etc.). For this, one technician was responsible for soliciting the relevant behaviors from a dog using encouragement and/or food rewards, while the evaluating technician scored function and observable pain using the modified CBPI questionnaire. Subjects were tested daily on Days -7 through -3, to develop baseline scores, and again on Days 1 through 5 administered 1.5 h after dosing. Dosing occurred in the morning, and observations were recorded 1.5 h after dosing, to limit time-of-day variability. Questions are listed in Supplementary Table S3. Animals in treatment groups had blood and synovial fluid collected ∼2 h after the last dose on day 5 (immediately following the study questionnaire) to confirm plasma concentrations in treated animals. Full pharmacokinetic assessments were collected from a satellite group of animals so as not to interfere with pain assessment.

Solubility of sEHI = assay type: physicochemical; settings: PEG300, organic solvent or mixture
Experimental: […] The non-dissolved compounds were filtered through a 0.22 μm centrifuge filter at 40°C and the supernatant was further diluted 10 times with methanol. The samples were analyzed by LC/MS-MS.

[2] = PK analysis in satellite dogs; assay type: in vivo, dog; settings: beagle, dog, whole blood; for AUC(0-t) / Cmax: detected EC1728, blood
Experimental: as §1
For PK analysis in the satellite group, individual parameters were calculated by fitting blood concentrations to a non-compartmental analysis using Kinetica software (Thermo Fisher Scientific version 5.1). Using the log-linear trapezoidal method, the area under the curve were calculated and were extrapolated to infinity using the last measured plasma concentration (Clast), defined as the timepoint collected 72 h after the last dose or 8 hr after the first dose on day 1, divided by the terminal slope (λz).

[3] = female, po, 1 mg/kg, dosed EC1728 1 mg/kg oral qd, female dog, Day 1
[4] = female, po, 1 mg/kg, dosed EC1728 1 mg/kg oral qd, female dog, Day 5
[5] = female, po, 5 mg/kg, dosed EC1728 5 mg/kg oral qd, female dog, Day 1
[6] = female, po, 5 mg/kg, dosed EC1728 5 mg/kg oral qd, female dog, Day 5
[7] = male, po, 1 mg/kg, dosed EC1728 1 mg/kg oral qd, male dog, Day 1
[8] = male, po, 1 mg/kg, dosed EC1728 1 mg/kg oral qd, male dog, Day 5
[9] = male, po, 5 mg/kg, dosed EC1728 5 mg/kg oral qd, male dog, Day 1
[10] = male, po, 5 mg/kg, dosed EC1728 5 mg/kg oral qd, male dog, Day 5

For O=C(Nc1ccc(OC(F)(F)F)cc1)N[C@H]1CC[C@H](Oc2ccc(C(=O)O)cc2)CC1 [EC1728, trans-4-{4-[3-(4-trifluoromethoxy-phenyl)-ureido]-cyclohexyloxy}-benzoic acid], the “% Parent + NADPH” value (Microsomal stability; female dog liver microsomes) was 98 ± 6%, the “% Parent − NADPH” value (Microsomal stability; female dog liver microsomes) was 106 ± 9% and the “% Parent + NADPH” value (Microsomal stability; male dog liver microsomes) was 103 ± 6%. The “% Parent − NADPH” value (Microsomal stability; male dog liver microsomes) was 108 ± 8%, the remaining at 1 h, 1 µM (Microsomal stability; pH 7.4, dog liver microsomes, 60-min incubation, sex not specified) was greater than 95% and the concentration at 2 h ([1]; blood, 5 mg/kg, day 5, group without dog 2.4, read-out: Blood concentration, average for the remainder of the group) was 0.395 µg/mL. The concentration at 2 h ([1]; synovial fluid, 5 mg/kg, day 5, read-out: Synovial fluid concentration, averaged for the group) was 0.988 µg/mL, the concentration at 2 h ([1]; synovial fluid, 5 mg/kg, dog 2.4 (low exposure, removed from analysis), read-out: Synovial fluid concentration, dog 2.4) was 0.08 to 0.095 µg/mL and the “Blood concentration D5” value ([1]; dosed EC1728 1 mg/kg, 1 mg/kg) was 0.031 µg/mL and 0.072 µg/mL and 0.076 µg/mL and 0.064 µg/mL and 0.082 µg/mL and 0.04 µg/mL and 0.036 µg/mL and 0.171 µg/mL. The “Synovial fluid concentration D1” value ([1]; dosed EC1728 1 mg/kg, 1 mg/kg) was 331 ng/mL and 206 ng/mL and 455 ng/mL and 232 ng/mL and 483 ng/mL and 111 ng/mL and 384 ng/mL and 917 ng/mL, the “Synovial fluid concentration D5” value ([1]; dosed EC1728 1 mg/kg, 1 mg/kg) was 239 ng/mL and 206 ng/mL and 378 ng/mL and 328 ng/mL and 315 ng/mL and 171 ng/mL and 214 ng/mL and 945 ng/mL and the “Blood concentration D5” value ([1]; dosed EC1728 5 mg/kg, 5 mg/kg) was 0.034 µg/mL and 0.206 µg/mL and 0.348 µg/mL and 0.314 µg/mL and 0.935 µg/mL and 0.228 µg/mL and 0.493 µg/mL and 0.244 µg/mL. For the same compound, the “Synovial fluid concentration D1” value ([1]; dosed EC1728 5 mg/kg, 5 mg/kg) was 2270 ng/mL and 301 ng/mL and 1180 ng/mL and 2220 ng/mL and 1470 ng/mL and 460 ng/mL and 95 ng/mL, the “Synovial fluid concentration D5” value ([1]; dosed EC1728 5 mg/kg, 5 mg/kg) was 1000 ng/mL and 1150 ng/mL and 833 ng/mL and 1330 ng/mL and 672 ng/mL and 668 ng/mL and 2170 ng/mL and 80 ng/mL and the solubility (Solubility of sEHI) was 97 ± 2 mg/mL (≈ 221 mM). The half-life ([2]; oral, satellite dogs, range over both compounds, Table 3, read-out: half-life) was 24 to 40 h, the AUC(0-t) [2, 3] was 1.35 µg·h/mL and the Cmax [2, 3] was 0.308 µg/mL. For the same compound, the AUC(0-t) [2, 4] was 155 µg·h/mL, the Cmax [2, 4] was 4.66 µg/mL and the half-life ([2]; female, po, 1 mg/kg, read-out: T1/2 (converted)) was 33 h. It also gave an AUC(0-t) [2, 5] of 4.94 µg·h/mL, a Cmax [2, 5] of 1.16 µg/mL and an AUC(0-t) [2, 6] of 53.2 µg·h/mL. It also gave a Cmax [2, 6] of 4.99 µg/mL, a half-life ([2]; female, po, 5 mg/kg, read-out: T1/2 (converted)) of 23 h and an AUC(0-t) [2, 7] of 1.69 µg·h/mL. The Cmax [2, 7] was 0.33 µg/mL, the AUC(0-t) [2, 8] was 32 µg·h/mL and the Cmax [2, 8] was 1.9 µg/mL. For the same compound, the half-life ([2]; male, po, 1 mg/kg, read-out: T1/2 (converted)) was 27 h, the AUC(0-t) [2, 9] was 3.76 µg·h/mL and the Cmax [2, 9] was 1.1 µg/mL. It also gave an AUC(0-t) [2, 10] of 96.3 µg·h/mL, a Cmax [2, 10] of 1.93 µg/mL and a half-life ([2]; male, po, 5 mg/kg, read-out: T1/2 (converted)) of 25 h.
